US9156811B2 (priority 2008, dated 2015)

What follows are molecules tested on Trypanosome (T. brucei brucei) (assay: In-vitro antitrypanosomal efficacy assay (cell growth, resazurin)). Conditions: T. brucei cell growth.
Type: cell-based
Procedure: To column 12, 200 μl media was added to provide a no cells control. Plates were then incubated at 37° C. in an atmosphere of 5% CO2 for 69 hours, before the addition of 20 μl of 500 μM rezasurin solution, and a further incubation period of 4 hours. […] Concentration effect curves were fitted using non-linear regression using XLFit 4.2 and EC50 values determined.

Structure (SMILES)	ED50 (μM) T. brucei [µM]
Cc1cc([S+](=O)([O-])Nc2c(C)nn(C)c2C)c(Cl)cc1Cl [DDD60006]	>1
Cc1nn(C)c(C)c1N[S+](=O)([O-])c1cc(C(F)(F)F)cc(C(F)(F)F)c1 [DDD61393]	>1
CCc1ccc([S+](=O)([O-])Nc2c(C)nn(C)c2C)cc1 [DDD71231]	>1
Cc1cc([S+](=O)([O-])Nc2c(C)nn(C)c2C)ccc1Br [DDD71235]	>1
Cc1nn(C)c(C)c1N[S+](=O)([O-])c1c(Cl)cccc1Cl [DDD71239]	23.2
COc1cc(NC(C)=O)ccc1[S+](=O)([O-])Nc1c(C)nn(C)c1C [DDD71590]	>1
Cc1nn(C)c(C)c1N[S+](=O)([O-])c1ccc(CNC(=O)c2ccc(Cl)cc2)s1 [DDD73224]	>1
Cc1nn(C)c(C)c1N[S+](=O)([O-])c1ccc(C#N)cc1Cl [DDD73228]	>1
Cc1nn(C)c(C)c1N[S+](=O)([O-])c1cc(Cl)cc(Cl)c1O [DDD73229]	>1
Cc1nn(C)c(C)c1N[S+](=O)([O-])c1c(Cl)cc(Br)cc1Cl [DDD73234, 4-Bromo-2,6-dichloro-N-(1,3,5-trimethyl-1H-pyrazol-4-yl)-benzenesulfonamide]	14.3
Cc1nn(C)c(C)c1N[S+](=O)([O-])c1ccc(Cl)nc1 [DDD73235, 6-Chloro-pyridine-3-sulfonic acid (1,3,5-trimethyl-1H-pyrazol-4-yl)-amide]	>1
Cc1nn(C)c(C)c1N[S+](=O)([O-])c1c(Cl)cc(-c2ccccc2OCC(C)C)cc1Cl [DDD73273]	>1
COCc1ccccc1-c1cc(Cl)c([S+](=O)([O-])Nc2c(C)nn(C)c2C)c(Cl)c1 [DDD73274]	>1
Cc1nn(C)c(C)c1N[S+](=O)([O-])c1ccc(NCCc2ccccc2)nc1 [DDD73319]	8.4
Cc1nn(C)c(C)c1N[S+](=O)([O-])c1c(Cl)cc(-c2ccc(OC(F)(F)F)cc2)cc1Cl [DDD73323]	>1
Cc1nn(C)c(C)c1N(Cc1ccccc1)[S+](=O)([O-])c1c(Cl)cc(Br)cc1Cl [DDD85601]	>1
Cc1nn(C)c(C)c1N[S+](=O)([O-])c1ccc(NCCN2CCN(C)CC2)nc1 [DDD85602, 6-[2-(4-Methyl-piperazin-1-yl)-ethylamino]-pyridine-3-sulfonic acid (1,3,5-trimethyl-1 H-pyrazol-4-yl)-amide]	0.63
C#CCN(c1c(C)nn(C)c1C)[S+](=O)([O-])c1c(Cl)cc(Br)cc1Cl [DDD85630]	>1
CC#CCN(c1c(C)nn(C)c1C)[S+](=O)([O-])c1c(Cl)cc(Br)cc1Cl [DDD85631]	>1
Cc1nn(C)c(C)c1N[S+](=O)([O-])c1c(Cl)cc(-c2ccc(CN(C)Cc3ccccc3)cc2)cc1Cl [DDD85632]	>1
Cc1nn(C)c(C)c1N[S+](=O)([O-])c1ccc(NCCN2CCCCC2)nc1 [DDD85635]	48.1
CCN(c1c(C)nn(C)c1C)[S+](=O)([O-])c1c(Cl)cc(Br)cc1Cl [DDD85637]	3.2
C=CCN(c1c(C)nn(C)c1C)[S+](=O)([O-])c1c(Cl)cc(Br)cc1Cl [DDD85638]	>1
CCN(CC)Cc1ccc(-c2cc(Cl)c([S+](=O)([O-])Nc3c(C)nn(C)c3C)c(Cl)c2)cc1 [DDD85639]	>1
Cc1nn(C)c(C)c1N(CC1OCCO1)[S+](=O)([O-])c1c(Cl)cc(Br)cc1Cl [DDD85641]	16.3
Cc1ccc(SCc2ccc([S+](=O)([O-])Nc3c(C)nn(C)c3C)cc2)cc1 [DDD85642]	>1

Structure (SMILES)	ED50 (μM) T. brucei [µM]
Cc1nn(C)c(C)c1N[S+](=O)([O-])c1c(Cl)cc(-c2ccc(CN3CCN(C)CC3)cc2)cc1Cl [DDD85644]	2.1
Cc1nn(C)c(C)c1N[S+](=O)([O-])c1c(Cl)cc(-c2ccc(N3CCNCC3)nc2)cc1Cl [DDD85645]	0.23
Cc1nn(C)c(C)c1N[S+](=O)([O-])c1ccc(Br)cc1Cl [DDD86208, 4-Bromo-2-chloro-N-(1,3,5-trimethyl-1H-pyrazol-4-yl)-benzenesulfonamide]	>1
Cc1nn(C)c(C)c1N[S+](=O)([O-])c1c(Cl)cc(-c2ccnc(Cl)c2)cc1Cl [DDD86209, 2,6-Dichloro-4-(2-chloro-pyridin-4-yl)-N-(1,3,5-trimethyl-1H-pyrazol-4-yl)-benzenesulfonamide]	>1
Cc1nn(C)c(C)c1N[S+](=O)([O-])c1c(Cl)cc(-c2ccnc(N3CCN(C)CC3)c2)cc1Cl [DDD86211, 2,6-Dichloro-4-[2-(4-methyl-piperazin-1-yl)-pyridin-4-yl]-N-(1,3,5-trimethyl-1H-pyrazol-4-yl)-benzenesulfonamide]	0.19
Cc1nn(C)c(C)c1N[S+](=O)([O-])c1ccc(-c2ccnc(N3CCNCC3)c2)cc1 [DDD86213, 4-(2-piperazin-1-yl-pyridin-4-yl)-N-(1,3,6-trimethyl-1H-pyrazol-4-yl)-benzenesulfonamide]	0.003
Cc1nn(C)c(C)c1N[S+](=O)([O-])c1ccc(NC2CCN(Cc3ccccc3)C2)nc1 (stereo not drawn) [DDD86294]	>1
Cc1nn(C)c(C)c1N[S+](=O)([O-])c1ccc(NC2CCNC2)nc1 (stereo not drawn) [DDD86296]	>1
Cc1nn(C)c(C)c1N[S+](=O)([O-])c1ccc(NCCCN2CCC(N(C)C)C2)nc1 (stereo not drawn) [DDD86300]	1.73
Cc1nn(C)c(C)c1N[S+](=O)([O-])c1ccc(NCCN2CCN(c3ccccc3)CC2)nc1 [DDD86301]	>1
Cc1nn(C)c(C)c1N[S+](=O)([O-])c1ccc(NCCN2CCNCC2)nc1 [DDD86305]	>1
Cc1nn(C)c(C)c1N[S+](=O)([O-])c1ccc(N2CCC(N(C)C)C2)nc1 (stereo not drawn) [DDD86306]	>1
Cc1nn(C)c(C)c1N[S+](=O)([O-])c1ccc(N(C)CCO)nc1 [DDD86307]	>1
Cc1nn(C)c(C)c1N[S+](=O)([O-])c1c(Cl)cc(-c2ccnc(NCCN(C)C)c2)cc1Cl [DDD86309, 2,6-Dichloro-4-[2-(2-dimethylamino-ethylamino)-pyridin-4-yl]-N-(1,3,5-trimethyl-1H-pyrazol-4-yl)-benzenesulfonamide]	>1
CCN(CC)Cc1cccc(-c2ccc([S+](=O)([O-])Nc3c(C)nn(C)c3C)cc2)c1 [DDD86312, 3′-Diethylaminomethyl-biphenyl-4-sulfonic acid (1,3,5-trimethyl-1H-pyrazol-4-yl)-amide]	0.07
Cc1nn(C)c(C)c1N[S+](=O)([O-])c1ccc(-c2cccc(CN3CCOCC3)c2)cc1 [DDD86314, 3′-Morpholin-4-ylmethyl-biphenyl-4-sulfonic acid (1,3,5-trimethyl-1H-pyrazol-4-yl)-amide]	>1
Cc1nn(C)c(C)c1N[S+](=O)([O-])c1ccc(-c2cccc(CN3CCN(C(=O)OC(C)(C)C)CC3)c2)cc1 [DDD86315, 4-[4′-(1,3,5-Trimethyl-1H-pyrazol-4-ylsulfamoyl)-biphenyl-3-ylmethyl]-piperazine-1-carboxylic acid tert-butyl ester]	>1
Cc1nn(C)c(C)c1N[S+](=O)([O-])c1ccc(-c2cccc(CNCCN(C)C)c2)cc1 [DDD86316, 3′-[(2-Dimethylamino-ethylamino)-methyl]biphenyl-4-sulfonic acid (1,3,5-trimethyl-1H-pyrazol-4-yl)-amide]	5.0
Cc1nn(C)c(C)c1N[S+](=O)([O-])c1ccc(-c2cccc(CN3CCNCC3)c2)cc1 [DDD86317, 3′-piperazin-1-ylmethyl-biphenyl-4-sulfonic acid (1,3,5-trimethyl-1H-pyrazol-4-yl)-amide]	0.02
Cc1nn(C)c(C)c1N[S+](=O)([O-])c1ccc(-c2cccc(CN3CCCC3)c2)cc1 [DDD86318, 3′-Pyrrolidin-1-ylmethyl-biphenyl-4-sulfonic acid (1,3,5-trimethyl-1H-pyrazol-4-yl)-amide]	0.21
Cc1nn(C)c(CC(C)C)c1N[S+](=O)([O-])c1c(Cl)cc(-c2ccnc(N3CCNCC3)c2)cc1Cl [DDD86467, 2,6-Dichloro-N-(5-isobutyl-1,3-dimethyl-1H-pyrazol-4-yl)-4-(2-piperazin-1-yl-pyridin-4-yl)-benzenesulfonamide]	0.003
Cc1noc(C)c1N[S+](=O)([O-])c1c(Cl)cc(-c2ccnc(N3CCNCC3)c2)cc1Cl [DDD86468, 2,6-Dichloro-N-(3,5-dimethyl-isoxazol-4-yl)-4-(2-piperazin-1-yl-pyridin-4-yl)-benzenesulfonamide]	0.20
Cc1nn(C)c(C)c1N[S+](=O)([O-])c1c(Cl)cc(C#CCN2CCN(C)CC2)cc1Cl [DDD86469, 2,6-Dichloro-4-[3-(4-methyl-piperazin-1-yl)-prop-1-ynyl]-N-(1,3,5-trimethyl-1H-pyrazol-4-yl)-benzenesulfonamide]	0.55
Cc1nn(C)cc1N[S+](=O)([O-])c1ccc(-c2ccnc(N3CCNCC3)c2)cc1 [DDD86471, N-(1,3-Dimethyl-1H-pyrazol-4-yl)-4-(2-piperazin-1-yl-pyridin-4-yl)-benzenesulfonamide]	0.009
Cc1nn(C)c(C)c1N[S+](=O)([O-])c1ccc(NCCN2CCN(Cc3ccccc3)CC2)nc1 [DDD86472]	>1
